Measured values: ChEMBL document CHEMBL1136100, “4-Aminopiperidine derivatives as a new class of potent cognition enhancing drugs” (2003)

Tests used:
Format in all cases: functional
Mus musculus [1] = organism: Mus musculus; assay: Cognition enhancing activity was evaluated by mouse passive-avoidance test using Scopolamine as amnesing drug after 1st day
Mus musculus [2] = organism: Mus musculus; assay: Cognition enhancing activity was evaluated by mouse passive-avoidance test using Scopolamine as amnesing drug after 2nd day
Mus musculus [3] = organism: Mus musculus; assay: Difference between entry latency of cognition enhancing activity between 2nd day and 1st day
Mus musculus [4] = assay: Cognition enhancing activity was evaluated by mouse passive-avoidance test using Scopolamine as amnesing drug administered intraperitoneally

| SMILES | Entry latency (Mus musculus [1]) [s] | Entry latency (Mus musculus [2]) [s] | Entry latency (Mus musculus [3]) [s] | Min effective dose (Mus musculus [4]) [mg/kg] |
| --- | --- | --- | --- | --- |
| CC(=O)N1CCC(NS(=O)(=O)c2ccc(F)cc2)CC1 | 23.5 | 126.8 | 92.6 | 0.1 |
| CC(=O)N1CCC(NS(=O)(=O)C(C)C)CC1 | 15.1 | 99.3 | 84.2 | 10 |
| CCC(=O)N1CCC(NC(=O)c2ccccc2)CC1 | 19.7 | 122.8 | 103.1 | 0.1 |
| CCC(=O)NC1CCN(C(=O)c2ccccc2)CC1 | 18 | 121 | 103 | 0.1 |
| CC(=O)NC1CCN(S(=O)(=O)c2ccc(F)cc2)CC1 | 14.5 | 90.6 | 76.1 | 0.01 |
| CCC(=O)N1CCC(NS(=O)(=O)c2ccc(F)cc2)CC1 | 15.6 | 108.2 | 103 | 10 |
| CCC(=O)N1CCN(S(=O)(=O)c2ccc(F)cc2)CC1 |  |  |  | 0.01 |
| CCC(=O)N1CCN(C(=O)c2ccccc2)CC1 |  |  |  | 0.01 |
| CCC(=O)NC1CCN(S(=O)(=O)C(C)C)CC1 | 14.2 | 102.8 | 88.6 | 10 |
| CC(=O)N1CCN(S(=O)(=O)c2ccc(F)cc2)CC1 |  |  |  | 0.01 |
| CC(=O)N1CCN(C(=O)c2ccccc2)CC1 |  |  |  | 10 |
| CC(=O)NC1CCN(S(=O)(=O)C(C)C)CC1 | 14.3 | 89.7 | 75.4 | 1 |
| CN1[C@@H]2C[C@@H](OC(=O)[C@H](CO)c3ccccc3)C[C@H]1[C@@H]1O[C@@H]12 [SCOPOLAMINE] |  | 44.5 | 27.9 | 1.5 |
| NC(=O)CN1CCCC1=O |  |  |  | 30 |
| CCC(=O)N1CCC(NS(=O)(=O)C(C)C)CC1 | 14.5 | 96.9 | 82.4 | 10 |
| CC(=O)NC1CCN(C(=O)c2ccccc2)CC1 | 12.8 | 113.5 | 100.7 | 10 |
| CCC(=O)NC1CCN(S(=O)(=O)c2ccc(F)cc2)CC1 | 17.6 | 103.4 | 85.8 | 0.1 |
